Measured values published in patent publication US20260092074A1, “Annelated Pyridines as Steroidogenesis Inhibitors, Preparation Method and Use Thereof” (Guangzhou Vinnocent Pharmaceutical Limited, priority 2022, published 2026).

Tests used:
human CYP11B1 = biological target: T1, human CYP11B1 (Homo sapiens, UniProt P15538); experiment: Inhibition of hCYP11B1 in transfected V79 cells; assay type: cell-based; conditions: hamster V79 cells expressing human CYP11B1; substrate 11-deoxycortisol 200 nM
T1 construct: expressed in transfected cells
T1 sequence (P15538 25-503): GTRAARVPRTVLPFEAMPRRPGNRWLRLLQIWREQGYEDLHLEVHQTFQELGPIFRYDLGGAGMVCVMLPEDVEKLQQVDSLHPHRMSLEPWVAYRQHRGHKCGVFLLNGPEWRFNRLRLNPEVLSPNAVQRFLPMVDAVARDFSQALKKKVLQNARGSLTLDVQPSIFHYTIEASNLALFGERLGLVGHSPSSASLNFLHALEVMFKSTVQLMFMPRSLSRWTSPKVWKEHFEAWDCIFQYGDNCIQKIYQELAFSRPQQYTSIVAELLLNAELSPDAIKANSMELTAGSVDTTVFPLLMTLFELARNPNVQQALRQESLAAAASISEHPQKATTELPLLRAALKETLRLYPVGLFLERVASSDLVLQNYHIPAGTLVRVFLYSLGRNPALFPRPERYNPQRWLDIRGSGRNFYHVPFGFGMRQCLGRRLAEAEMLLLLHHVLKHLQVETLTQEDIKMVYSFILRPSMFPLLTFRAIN
Method in brief: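 V79 hamster cells stably expressing human CYP11B1 and rat NADPH-P450 reductase were preincubated with compounds for 2 h. 11-Deoxycortisol (200 nM) was then added as substrate for 30 min before ethyl acetate quench. Substrate and product were quantified by LC-MS/MS or HPLC at 260 nm, and IC50 was derived from percent inhibition.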

human CYP11B2 = biological target: T2, human CYP11B2 (Homo sapiens, UniProt P19099); experiment: Inhibition of hCYP11B2 in transfected V79 cells; assay type: cell-based; conditions: hamster V79 cells expressing human CYP11B2; substrate 11-deoxycorticosterone 200 nM
T2 construct: expressed in transfected cells
T2 sequence (P19099 25-503): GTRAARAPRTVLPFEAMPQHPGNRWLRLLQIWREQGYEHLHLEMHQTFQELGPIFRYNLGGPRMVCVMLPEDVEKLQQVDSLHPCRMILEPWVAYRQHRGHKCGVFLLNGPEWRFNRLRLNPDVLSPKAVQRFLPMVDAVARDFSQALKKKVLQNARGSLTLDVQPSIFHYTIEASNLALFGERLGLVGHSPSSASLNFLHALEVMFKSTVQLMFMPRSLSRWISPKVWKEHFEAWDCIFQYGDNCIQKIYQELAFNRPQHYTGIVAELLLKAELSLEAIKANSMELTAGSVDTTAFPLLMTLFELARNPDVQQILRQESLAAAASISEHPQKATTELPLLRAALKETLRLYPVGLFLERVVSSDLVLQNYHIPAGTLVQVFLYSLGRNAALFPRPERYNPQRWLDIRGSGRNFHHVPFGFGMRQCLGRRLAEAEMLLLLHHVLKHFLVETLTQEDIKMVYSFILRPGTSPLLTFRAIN
Method in brief: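 Hamster V79 cells stably co-expressing human CYP11B2 and rat NADPH-P450 reductase were pre-incubated with compounds for 2 hours, then given 200 nM 11-deoxycorticosterone for 30 minutes before ethyl acetate quench. Substrate and product were quantified by LC-MS/MS or HPLC at 260 nm, and IC50 was derived from percent inhibition.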

Row | SMILES | IC50 (human CYP11B1) [nM] | IC50 (human CYP11B2) [nM]
1 | O=C(c1ccc(F)cc1)n1ccc2c(-c3ccn4ccnc4c3)cncc21 [E39, (4-Fluorophenyl)(4-(imidazo[1,2-a]pyridin-7-yl)-1H-pyrrolo[2,3-c]pyridin-1-yl)methanone] | 678 | 12
2 | Cn1c(=O)c(=O)[nH]c2cncc(-c3ccc(C#N)cc3)c21 [N1, 4-(1-Methyl-2,3-dioxo-1,2,3,4-tetrahydropyrido[3,4-b]pyrazin-8-yl)benzonitrile] | 409 | 372
3 | Cn1c(=O)c(=O)[nH]c2cncc(-c3ccc(F)cc3)c21 [N2, 8-(4-Fluorophenyl)-1-methyl-1,4-dihydropyrido[3,4-b]pyrazine-2,3-dione] | 746 | 593
4 | CN1CCNc2cncc(-c3ccc(C#N)cc3)c21 [N3, 4-(1-Methyl-1,2,3,4-tetrahydropyrido[3,4-b]pyrazin-8-yl)benzonitrile] | 394 | 311
5 | CN1CCN(S(=O)(=O)c2ccc(C#N)cc2)c2cncc(-c3ccc(C#N)cc3)c21 [N4, 4-((8-(4-Cyanophenyl)-1-methyl-2,3-dihydropyrido[3,4-b]pyrazin-4 (1H)-yl)sulfonyl)benzonitrile] | 5.2 | 0.6
6 | CN1CCN(C(=O)c2ccc(F)cc2)c2cncc(-c3ccc(C#N)cc3)c21 [N5, 4-(4-(4-Fluorobenzoyl)-1-methyl-1,2,3,4-tetrahydropyrido[3,4-b]pyrazin-8-yl)benzonitrile] | 48 | 7.8
7 | Cn1cnc2cncc(-c3ccc(C#N)cc3)c21 [N6, 4-(1-Methyl-1H-imidazo[4,5-c]pyridin-7-yl)benzonitrile] | 661 | 655
8 | N#Cc1ccc(-c2cncc3ncn(C4CC4)c23)cc1 [N7, 4-(1-Cyclopropyl-1H-imidazo[4,5-c]pyridin-7-yl)benzonitrile] | 453 | 679
9 | N#Cc1ccc(-c2cncc3c2OCCN3S(=O)(=O)c2ccccc2)cc1 [O1, 4-(4-(Phenylsulfonyl)-3,4-dihydro-2H-pyrido[4,3-b][1,4]oxazin-8-yl)benzonitrile] | 0.22 | 0.16
10 | N#Cc1ccc(-c2cncc3c2OCCN3S(=O)(=O)c2ccc(F)cc2)cc1 [O2, 4-(4-((4-Fluorophenyl)sulfonyl)-3,4-dihydro-2H-pyrido[4,3-b][1,4]oxazin-8-yl)benzonitrile] | 0.56 | 0.13
11 | N#Cc1ccc(-c2cncc3c2OCCN3S(=O)(=O)c2cccc(F)c2)cc1 [O3, 4-(4-((3-Fluorophenyl)sulfonyl)-3,4-dihydro-2H-pyrido[4,3-b][1,4]oxazin-8-yl)benzonitrile] | 0.1 | 0.14
12 | Cc1ccc(S(=O)(=O)N2CCOc3c(-c4ccc(C#N)cc4)cncc32)cc1 [O4, 4-(4-Tosyl-3,4-dihydro-2H-pyrido[4,3-b][1,4]oxazin-8-yl)benzonitrile] | 0.1 | 0.1
13 | Cc1cccc(S(=O)(=O)N2CCOc3c(-c4ccc(C#N)cc4)cncc32)c1 [O5, 4-(4-(m-Tolylsulfonyl)-3,4-dihydro-2H-pyrido[4,3-b][1,4]oxazin-8-yl)benzonitrile] | 0.48 | 0.23
14 | N#Cc1ccc(-c2cncc3c2OCCN3S(=O)(=O)c2ccc(Cl)cc2)cc1 [O6, 4-(4-((4-Chlorophenyl)sulfonyl)-3,4-dihydro-2H-pyrido[4,3-b][1,4]oxazin-8-yl)benzonitrile] | 0.66 | 0.41
15 | N#Cc1ccc(-c2cncc3c2OCCN3S(=O)(=O)c2cccc(Cl)c2)cc1 [O7, 4-(4-((3-Chlorophenyl)sulfonyl)-3,4-dihydro-2H-pyrido[4,3-b][1,4]oxazin-8-yl)benzonitrile] | 0.12 | 0.47
16 | COc1ccc(S(=O)(=O)N2CCOc3c(-c4ccc(C#N)cc4)cncc32)cc1 [O8, 4-(4-((4-Methoxyphenyl)sulfonyl)-3,4-dihydro-2H-pyrido[4,3-b][1,4]oxazin-8-yl)benzonitrile] | 0.02 | 0.02

Row | SMILES | IC50 (human CYP11B1) [nM] | IC50 (human CYP11B2) [nM]
17 | N#Cc1ccc(-c2cncc3c2OCCN3S(=O)(=O)c2ccc([N+](=O)[O-])cc2)cc1 [O9, 4-(4-((4-Nitrophenyl)sulfonyl)-3,4-dihydro-2H-pyrido[4,3-b][1,4]oxazin-8-yl)benzonitrile] | 1.1 | 0.11
18 | N#Cc1ccc(-c2cncc3c2OCCN3S(=O)(=O)c2cccc([N+](=O)[O-])c2)cc1 [O10, 4-(4-((3-Nitrophenyl)sulfonyl)-3,4-dihydro-2H-pyrido[4,3-b][1,4]oxazin-8-yl)benzonitrile] | 2.8 | 0.41
19 | N#Cc1ccc(-c2cncc3c2OCCN3S(=O)(=O)c2ccc(C(F)(F)F)cc2)cc1 [O11, 4-(4-((4-(Trifluoromethyl)phenyl)sulfonyl)-3,4-dihydro-2H-pyrido[4,3-b][1,4]oxazin-8-yl)benzonitrile] | 2 | 0.04
20 | N#Cc1ccc(-c2cncc3c2OCCN3S(=O)(=O)c2cccc(C(F)(F)F)c2)cc1 [O12, 4-(4-((3-(Trifluoromethyl)phenyl)sulfonyl)-3,4-dihydro-2H-pyrido[4,3-b][1,4]oxazin-8-yl)benzonitrile] | 0.74 | 0.18
21 | N#Cc1ccc(-c2cncc3c2OCCN3S(=O)(=O)c2cccnc2)cc1 [O13, 4-(4-(Pyridin-3-ylsulfonyl)-3,4-dihydro-2H-pyrido[4,3-b][1,4]oxazin-8-yl)benzonitrile] | 0.31 | 0.48
22 | CS(=O)(=O)N1CCOc2c(-c3ccc(C#N)cc3)cncc21 [O14, 4-(4-(Methylsulfonyl)-3,4-dihydro-2H-pyrido[4,3-b][1,4]oxazin-8-yl)benzonitrile] | 0.41 | 0.2
23 | N#Cc1ccc(-c2cncc3c2OCCN3S(=O)(=O)c2cccc3cccnc23)cc1 [O15, 4-(4-(Quinolin-8-ylsulfonyl)-3,4-dihydro-2H-pyrido[4,3-b][1,4]oxazin-8-yl)benzonitrile] | 1.46 | 0.25
24 | N#Cc1ccc(-c2cncc3c2OCCN3S(=O)(=O)c2cccs2)cc1 [O16, 4-(4-(Thiophen-2-ylsulfonyl)-3,4-dihydro-2H-pyrido[4,3-b][1,4]oxazin-8-yl)benzonitrile] | 0.04 | 0.56
25 | N#Cc1ccc(-c2cncc3c2OCCN3S(=O)(=O)c2cccc3ccccc23)cc1 [O17, 4-(4-(Naphthalen-1-ylsulfonyl)-3,4-dihydro-2H-pyrido[4,3-b][1,4]oxazin-8-yl)benzonitrile] | 6.5 | 0.39
26 | N#Cc1ccc(-c2cncc3c2OCCN3S(=O)(=O)c2ccc3ccccc3c2)cc1 [O18, 4-(4-(Naphthalen-2-ylsulfonyl)-3,4-dihydro-2H-pyrido[4,3-b][1,4]oxazin-8-yl)benzonitrile] | 0.91 | 0.2
27 | N#Cc1ccc(-c2cncc3c2OCCN3C(=O)c2ccc(F)cc2)cc1 [O19, 4-(4-(4-Fluorobenzoyl)-3,4-dihydro-2H-pyrido[4,3-b][1,4]oxazin-8-yl)benzonitrile] | 1350 | 23.1
28 | N#Cc1ccc(-c2cncc3c2OCCN3C(=O)c2cccc(F)c2)cc1 [O20, 4-(4-(3-Fluorobenzoyl)-3,4-dihydro-2H-pyrido[4,3-b][1,4]oxazin-8-yl)benzonitrile] | 1730 | 25.2
29 | N#Cc1ccc(-c2cncc3c2OCCN3C(=O)c2ccccc2F)cc1 [O21, 4-(4-(2-Fluorobenzoyl)-3,4-dihydro-2H-pyrido[4,3-b][1,4]oxazin-8-yl)benzonitrile] | 1130 | 26.1
30 | COc1ccc(C(=O)N2CCOc3c(-c4ccc(C#N)cc4)cncc32)cc1 [O22, 4-(4-(4-Methoxybenzoyl)-3,4-dihydro-2H-pyrido[4,3-b][1,4]oxazin-8-yl)benzonitrile] | 3400 | 108
31 | COc1cccc(C(=O)N2CCOc3c(-c4ccc(C#N)cc4)cncc32)c1 [O23, 4-(4-(3-Methoxybenzoyl)-3,4-dihydro-2H-pyrido[4,3-b][1,4]oxazin-8-yl)benzonitrile] | 516 | 29.5
32 | N#Cc1ccc(-c2cncc3c2OCCN3C(=O)c2ccc(C(F)(F)F)cc2)cc1 [O24, 4-(4-(4-(Trifluoromethyl)benzoyl)-3,4-dihydro-2H-pyrido[4,3-b][1,4]oxazin-8-yl)benzonitrile] | 85.6 | 19.7
